test system: Utrophin A promoter linked to a luciferase reporter gene; assay: Luciferase reporter assay (murine H2K cells), H2K/mdx/Utro A reporter cell line; format: cell-based; details: 48 h; test compound concentration 0.1 μM; mdx mouse H2K Utrophin A reporter cells; read-out: Activity (luciferase level relative to control)
Method in brief: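 Immortalized mdx mouse H2K myoblasts stably carrying ~5 kb utrophin A promoter–luciferase construct, kept at 33 °C, 10% CO2. Compound added 24 h after plating, typically at 10 μM final, for 48 h; luciferase measured by cell lysis and luminescence.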

SMILES | activity at 0.1 µM [%]
CS(=O)(=O)c1ccc(Cn2nc(C(=O)Nc3ccc4c(c3)OCO4)c3c2CCCC3)cc1 [Compound 149, N-(benzo[d][1,3]dioxol-5-yl)-1-(4-(methylsulfonyl)benzyl)-4,5,6,7-tetrahydro-1H-indazole-3-carboxamide] | < 200

same assay, conditions: 48 h; test compound concentration 10 μM; mdx mouse H2K Utrophin A reporter cells; read-out: Activity (luciferase level relative to control)

SMILES | activity at 10 µM [%]
CC(C)(C)c1ccc(Cn2nc(C(=O)Nc3ccc4c(c3)OC(F)(F)O4)c3ccccc32)cc1 [Compound 48, 1-(4-tert-butylbenzyl)-N-(2,2-difluorobenzo[d][1,3]dioxol-5-yl)-1H-indazole-3-carboxamide] | < 200
O=C(Nc1ccc2c(c1)OCO2)c1nn(Cc2ccccc2)c2ccccc12 [Compound 87, N-(benzo[d][1,3]dioxol-5-yl)-1-benzyl-1H-indazole-3-carboxamide] | < 200
COc1ccc(NC(=O)c2nn(Cc3ccc(C(=O)N4CCOCC4)cc3)c3ccccc23)cc1 [Compound 144, N-(4-methoxyphenyl)-1-(4-(morpholine-4-carbonyl)benzyl)-1H-indazole-3-carboxamide] | 301 to 400
O=C(Nc1ccc(N2CCCCC2)cc1)c1nn(CCOc2ccc(F)cc2)c2ccccc12 [Compound 43, 1-(2-(4-fluorophenoxy)ethyl)-N-(4-(piperidin-1-yl)phenyl)-1H-indazole-3-carboxamide] | < 200
O=C(Nc1ccc2c(c1)OCCO2)c1nn(Cc2ccc(C(=O)N3CCOCC3)cc2)c2ccccc12 [Compound 143, N-(2,3-dihydrobenzo[b][1,4]dioxin-6-yl)-1-(4-(morpholine-4-carbonyl)benzyl)-1H-indazole-3-carboxamide] | 301 to 400
O=C(Nc1ccc(N2CCCCC2)cc1)c1nn(CCOc2ccccc2)c2ccccc12 [Compound 75, 1-(2-phenoxyethyl)-N-(4-(piperidin-1-yl)phenyl)-1H-indazole-3-carboxamide] | 201 to 300
COC(=O)c1ccc(NC(=O)Nc2nn(Cc3ccc(COc4cccc(OC)c4)cc3)c3ccccc23)cc1 [Compound 11, methyl 4-(3-(1-(4-((3-methoxyphenoxy)methyl)benzyl)-1H-indazol-3-yl)ureido)benzoate] | < 200
COc1ccc(CCNC(=O)Nc2nn(Cc3ccc(C(F)(F)F)cc3)c3ccccc23)cc1OC [Compound 73, 1-(3,4-dimethoxyphenethyl)-3-(1-(4-(trifluoromethyl)benzyl)-1H-indazol-3-yl)urea] | < 200
CS(=O)(=O)c1ccc(Cn2nc(C(=O)Nc3ccc4occc4c3)c3ccccc32)cc1 [Compound 120, N-(benzofuran-5-yl)-1-(4-(methylsulfonyl)benzyl)-1H-indazole-3-carboxamide] | 301 to 400
CCc1nnc(Cn2nc(C(=O)Nc3ccc4c(c3)OCO4)c3ccccc32)o1 [Compound 155] | < 200
CS(=O)(=O)c1ccc(Cn2nc(C(=O)Nc3ccc(OC(F)(F)F)cc3)c3ccccc32)cc1 [Compound 23, 1-(4-(methylsulfonyl)benzyl)-N-(4-(trifluoromethoxy)phenyl)-1H-indazole-3-carboxamide] | < 200
COc1cccc(OCc2ccc(Cn3nc(NC(=O)Nc4ccccc4OC(F)(F)F)c4ccccc43)cc2)c1 [Compound 68, 1-(1-(4-((3-methoxyphenoxy)methyl)benzyl)-1H-indazol-3-yl)-3-(2-(trifluoromethoxy)phenyl)urea] | < 200
O=C(Nc1cccc(F)c1)Nc1nn(Cc2ccc(COc3ccc4c(c3)OCO4)cc2)c2ccc(C(F)(F)F)cc12 [Compound 9, 1-(1-(4-((benzo[d][1,3]dioxol-5-yloxy)methyl)benzyl)-5-(trifluoromethyl)-1H-indazol-3-yl)-3-(3-fluorophenyl)urea] | < 200
CS(=O)(=O)c1ccc(Cn2nc(C(=O)Nc3ccccn3)c3ccccc32)cc1 [Compound 77, 1-(4-(methylsulfonyl)benzyl)-N-(pyridin-2-yl)-1H-indazole-3-carboxamide] | < 200
CN(c1ccccc1)S(=O)(=O)c1ccc(Cn2nc(C(=O)NOCc3ccccc3)c3ccccc32)cc1 [Compound 24, N-(benzyloxy)-1-(4-(N-methyl-N-phenylsulfamoyl)benzyl)-1H-indazole-3-carboxamide] | < 200
CCN(CC)S(=O)(=O)c1ccc(Cn2nc(C(=O)Nc3nc4ccccc4s3)c3ccccc32)cc1 [Compound 7, N-(benzo[d]thiazol-2-yl)-1-(4-(N,N-diethylsulfamoyl)benzyl)-1H-indazole-3-carboxamide] | < 200
CC(C)c1ccc(NC(=O)c2nn(Cc3ccc(C(=O)N(C)C)cc3)c3ccccc23)cc1 [Compound 139, 1-(4-(dimethylcarbamoyl)benzyl)-N-(4-isopropylphenyl)-1H-indazole-3-carboxamide] | < 200
CS(=O)(=O)c1ccc(Cn2nc(C(=O)Nc3ccc(C4CCCCC4)cc3)c3ccccc32)cc1 [Compound 122, N-(4-cyclohexylphenyl)-1-(4-(methylsulfonyl)benzyl)-1H-indazole-3-carboxamide] | 201 to 300
CS(=O)(=O)c1ccc(Cn2nc(C(=O)O)c3ccccc32)cc1 [Compound 157, 1-(4-(methylsulphonyl)benzyl)-1H-indazole-3-carboxylic acid] | < 200
Cc1ccc(NC(=O)c2nn(Cc3ccc(S(C)(=O)=O)cc3)c3ccccc23)cc1C [Compound 104, N-(3,4-dimethylphenyl)-1-(4-(methylsulfonyl)benzyl)-1H-indazole-3-carboxamide] | 301 to 400
CS(=O)(=O)c1ccc(Cn2nc(C(=O)Nc3ccc4c(c3)OCO4)c3ccccc32)cc1 [Compound 4, N-(benzo[d][1,3]dioxol-5-yl)-1-(4-(methylsulfonyl)benzyl)-1H-indazole-3-carboxamide] | 301 to 400
CC(C)c1ccc(Cn2nc(C(=O)Nc3ccc(S(C)(=O)=O)cc3)c3ccccc32)cc1 [Compound 91, 1-(4-isopropylbenzyl)-N-(4-(methylsulfonyl)phenyl)-1H-indazole-3-carboxamide] | < 200
C#CCN(C)S(=O)(=O)c1ccc(Cn2nc(C(=O)Nc3ccc(N4CCCCC4)cc3)c3ccccc32)cc1 [Compound 6, 1-(4-(N-methyl-N-(prop-2-ynyl)sulfamoyl)benzyl)-N-(4-(piperidin-1-yl)phenyl)-1H-indazole-3-carboxamide] | 301 to 400
O=C(Nc1ccc2c(c1)OCO2)c1nn(Cc2ccc(S(=O)(=O)N3CCOCC3)cc2)c2ccccc12 [Compound 137, N-(benzo[d][1,3]dioxol-5-yl)-1-(4-(morpholinosulfonyl)benzyl)-1H-indazole-3-carboxamide] | 201 to 300
O=C(Nc1ccc2c(c1)OCO2)c1nn(Cc2ccc(C(=O)N3CCCCC3)cc2)c2ccccc12 [Compound 93, N-(benzo[d][1,3]dioxol-5-yl)-1-(4-(piperidine-1-carbonyl)benzyl)-1H-indazole-3-carboxamide] | < 200
CCc1ccc(NC(=O)c2nn(Cc3ccc(S(C)(=O)=O)cc3)c3ccccc23)cc1 [Compound 84, N-(4-ethylphenyl)-1-(4-(methylsulfonyl)benzyl)-1H-indazole-3-carboxamide] | 301 to 400
CS(=O)(=O)c1ccc(Cn2cc(C(=O)Nc3ccc4c(c3)OCO4)c3ccccc32)cc1 [Compound 146, N-(benzo[d][1,3]dioxol-5-yl)-1-(4-(methylsulfonyl)benzyl)-1H-indole-3-carboxamide] | < 200
COc1cccc(OCc2ccc(Cn3nc(NC(=O)Nc4ccc5c(c4)CCC5)c4ccccc43)cc2)c1 [Compound 30, 1-(2,3-dihydro-1H-inden-5-yl)-3-(1-(4-((3-methoxyphenoxy)methyl)benzyl)-1H-indazol-3-yl)urea] | < 200
CCc1ccc(Cn2nc(C(=O)Nc3ccc4c(c3)OCCO4)c3ccccc32)cc1 [Compound 158, N-(2,3-dihydrobenzo[b][1,4]dioxin-6-yl)-1-(4-ethylbenzyl)-1H-indazole-3-carboxamide] | 201 to 300

From patent US20100305120A1, “COMPOUNDS FOR TREATING MUSCULAR DYSTROPHY” (BIOMARIN IGA LIMITED, priority 2008, published 2010)
